Experiments:
Type in all cases: in vivo, Wistar rats
[1] = system: STZ-induced diabetic rats; test: Study No 1: blood glucose in STZ-induced diabetic rats (HCQ with sitagliptin)
Experimental: (§1) In this experiment 48 Wistar rats weighing 130-150 g of either sex were divided randomly into 8 groups consisting of 6 rats each. The study drugs suspended in vehicle [0.1% w/v suspension of Tween 80 and carboxymethylcellulose (CMC) in water] were administered for orally for 21 days. Group 1 (normal vehicle control) consisted of normal rats that neither received streptozotocin nor any test drug; Group 2 served as streptozotocin induced diabetic control (Diabetes was induced in rats by single administration of streptozotocin (60 mg/kg/i.p) dissolved in 0.1 M-citrate buffer, pH 4.5). Forty-eight hours later, blood samples were collected and glucose levels were determined to confirm the development of diabetes.
Blood glucose level was measured in normal and experimental rats at 1st, 7th, 14th and 21st day of administration. For other biochemical parameters i.e. Insulin, HbA1c, Triglycerides, Total Cholesterol, HDL, SGOT, SGPT, Total Protein, Albumin, Creatinine and Urea Blood samples were collected 1 h after the last dose administration from 18 h fasted rats through the retro-orbital plexus under chloroform anesthesia and analyzed using autoanalyzer (Microlab 2000). Other parameters like body weight, food intake and water intake were evaluated weekly till day 21st.

[2] = system: STZ-induced diabetic rats; test: Study No 1: biochemical parameters in STZ-induced diabetic rats; settings: after 21 days
Experimental: as §1, with “diabetes. […] Group 3 was diabetic rats treated with dose equivalent to human therapeutic dose of sitagliptin (STG) (11 mg/kg); Group 4 was diabetic rats treated with dose equivalent to human therapeutic dose of Hydroxychloroquine (HCQ) (46 mg/kg), Group 5 was diabetic rats treated with combination of HCQ 46 mg/kg and STG11 mg/kg; […] For other biochemical parameters i.e. […] Other parameters like body weight, food intake and water intake were evaluated weekly till day 21st.” for “diabetes.”

[3] = system: STZ-induced diabetic rats; test: Study No 1: body weight, food intake and water intake in STZ-induced diabetic rats; settings: for AVERAGE WATER INTAKE: oral
Experimental: as §1, with “diabetes. […] Group 3 was diabetic rats treated with dose equivalent to human therapeutic dose of sitagliptin (STG) (11 mg/kg); Group 4 was diabetic rats treated with dose equivalent to human therapeutic dose of Hydroxychloroquine (HCQ) (46 mg/kg), Group 5 was diabetic rats treated with combination of HCQ 46 mg/kg and STG11 mg/kg; […] For other biochemical parameters i.e. […] Other parameters like body weight, food intake and water intake were evaluated weekly till day 21st.” for “diabetes.”

[4] = subtherapeutic dose: STG 5.5, HCQ 23, STG+HCQ 5.5+23 mg/kg/day oral
[5] = therapeutic dose: STG 11, HCQ 46, STG+HCQ 11+46 mg/kg/day oral

How did the Plasma glucose concentration ([1]; 1st day, subtherapeutic dose: STG 5.5, HCQ 23, STG+HCQ 5.5+23 mg/kg oral) turn out when `N[C@@H](CC(=O)N1CCn2c(nnc2C(F)(F)F)C1)Cc1cc(F)c(F)cc1F` [STG, Sitagliptin] was run?
Its Plasma glucose concentration is 267.17 ± 12.83 mg/dL.

And the Plasma glucose concentration ([1]; 1st day, therapeutic dose: STG 11, HCQ 46, STG+HCQ 11+46 mg/kg oral)?
Its Plasma glucose concentration is 258.33 ± 11.57 mg/dL.

And the Plasma glucose concentration ([1]; 7th day, subtherapeutic dose: STG 5.5, HCQ 23, STG+HCQ 5.5+23 mg/kg oral)?
The Plasma glucose concentration was 261.83 ± 11.58 mg/dL.

What about the Plasma glucose concentration ([1]; 7th day, therapeutic dose: STG 11, HCQ 46, STG+HCQ 11+46 mg/kg oral) of the same compound?
Its Plasma glucose concentration is 225.00 ± 12.63 mg/dL.

And the Plasma glucose concentration ([1]; 14th day, subtherapeutic dose: STG 5.5, HCQ 23, STG+HCQ 5.5+23 mg/kg oral)?
Its Plasma glucose concentration is 227.83 ± 13.95 mg/dL.

What about the Plasma glucose concentration ([1]; 14th day, therapeutic dose: STG 11, HCQ 46, STG+HCQ 11+46 mg/kg oral, 46 mg/kg) of the same compound?
The Plasma glucose concentration was 206.17 ± 10.26 mg/dL.

What about the Plasma glucose concentration ([1]; 14th day, therapeutic dose: STG 11, HCQ 46, STG+HCQ 11+46 mg/kg oral, listed as sitagliptin, 46 mg/kg) of the same compound?
Its Plasma glucose concentration is “significant improvement”.

What about the Plasma glucose concentration ([1]; 21st day, subtherapeutic dose: STG 5.5, HCQ 23, STG+HCQ 5.5+23 mg/kg oral) of the same compound?
The Plasma glucose concentration was 200.83 ± 4.71 mg/dL.

What about the Plasma glucose concentration ([1]; 21st day, therapeutic dose: STG 11, HCQ 46, STG+HCQ 11+46 mg/kg oral) of the same compound?
Its Plasma glucose concentration is 156.50 ± 12.85 mg/dL.

What about the Albumin [2, 4] of the same compound?
Its Albumin is 2.20 g/dL.

And the Creatinine [2, 4]?
Its Creatinine is 1.76.

What about the HDL-C [2, 4] of the same compound?
Its HDL-C is 23.92 mg/dL.

What about the HbA1c [2, 4] of the same compound?
Its HbA1c is 5.12.

And the “Insulin (serum)” value [2, 4]?
Its value is 4.43.

What about the SGOT [2, 4] of the same compound?
Its SGOT is 54.02.

And the SGPT [2, 4]?
The SGPT was 54.64.

And the TC [2, 4]?
Its TC is 156.69 mg/dL.

What about the TG [2, 4] of the same compound?
Its TG is 121.91 mg/dL.

And the Total Protein [2, 4]?
The Total Protein was 4.15 g/dL.

What about the Urea [2, 4] of the same compound?
The Urea was 45.05 mg/dL.

What about the Albumin [2, 5] of the same compound?
Its Albumin is 2.63 g/dL.

And the Creatinine [2, 5]?
Its Creatinine is 1.63.

And the HDL-C [2, 5]?
Its HDL-C is 26.04 mg/dL.

What about the HbA1c [2, 5] of the same compound?
The HbA1c was 5.04.

And the “Insulin (serum)” value [2, 5]?
The value was 6.11.

What about the SGOT [2, 5] of the same compound?
The SGOT was 51.47.

What about the SGPT [2, 5] of the same compound?
The SGPT was 55.47.

What about the TC [2, 5] of the same compound?
Its TC is 146.92 mg/dL.

What about the TG [2, 5] of the same compound?
The TG was 116.48 mg/dL.

And the Total Protein [2, 5]?
Its Total Protein is 4.83 g/dL.

What about the Urea [2, 5] of the same compound?
Its Urea is 23.57 mg/dL.

And the “AVERAGE WATER INTAKE” value ([3]; Day 1, Sub-The (subtherapeutic dose))?
Its value is 28.33 mL.

What about the “AVERAGE WATER INTAKE” value ([3]; Day 1, The (therapeutic dose)) of the same compound?
Its value is 30.67 mL.

And the Body Weight ([3]; Day 1, subtherapeutic dose: STG 5.5, HCQ 23, STG+HCQ 5.5+23 mg/kg oral)?
The Body Weight was 145.83 ± 12.61 g.

What about the “AVERAGE FOOD INTAKE” value ([3]; Day 1, subtherapeutic dose: STG 5.5, HCQ 23, combination 5.5+23 mg/kg oral) of the same compound?
The value was 11.50 g.

And the Body Weight ([3]; Day 1, therapeutic dose: STG 11, HCQ 46, STG+HCQ 11+46 mg/kg oral)?
Its Body Weight is 137.83 ± 6.49 g.

What about the “AVERAGE FOOD INTAKE” value ([3]; Day 1, therapeutic dose: STG 11, HCQ 46, combination 11+46 mg/kg oral) of the same compound?
Its value is 12.17 g.

And the “AVERAGE WATER INTAKE” value ([3]; Day 7, Sub-The (subtherapeutic dose))?
Its value is 27.17 mL.

What about the “AVERAGE WATER INTAKE” value ([3]; Day 7, The (therapeutic dose)) of the same compound?
Its value is 29.00 mL.

What about the Body Weight ([3]; Day 7, subtherapeutic dose: STG 5.5, HCQ 23, STG+HCQ 5.5+23 mg/kg oral) of the same compound?
The Body Weight was 147.83 ± 12.37 g.

And the “AVERAGE FOOD INTAKE” value ([3]; Day 7, subtherapeutic dose: STG 5.5, HCQ 23, combination 5.5+23 mg/kg oral)?
Its value is 11.83 g.

And the Body Weight ([3]; Day 7, therapeutic dose: STG 11, HCQ 46, STG+HCQ 11+46 mg/kg oral)?
The Body Weight was 142.67 ± 7.45 g.

What about the “AVERAGE FOOD INTAKE” value ([3]; Day 7, therapeutic dose: STG 11, HCQ 46, combination 11+46 mg/kg oral) of the same compound?
Its value is 10.67 g.

What about the “AVERAGE WATER INTAKE” value ([3]; Day 14, Sub-The (subtherapeutic dose)) of the same compound?
Its value is 26.67 mL.

What about the “AVERAGE WATER INTAKE” value ([3]; Day 14, The (therapeutic dose)) of the same compound?
The value was 28.50 mL.

What about the Body Weight ([3]; Day 14, subtherapeutic dose: STG 5.5, HCQ 23, STG+HCQ 5.5+23 mg/kg oral) of the same compound?
Its Body Weight is 150.50 ± 12.31 g.

And the “AVERAGE FOOD INTAKE” value ([3]; Day 14, subtherapeutic dose: STG 5.5, HCQ 23, combination 5.5+23 mg/kg oral)?
The value was 10.83 g.

What about the Body Weight ([3]; Day 14, therapeutic dose: STG 11, HCQ 46, STG+HCQ 11+46 mg/kg oral) of the same compound?
Its Body Weight is 149.00 ± 7.46 g.

What about the “AVERAGE FOOD INTAKE” value ([3]; Day 14, therapeutic dose: STG 11, HCQ 46, combination 11+46 mg/kg oral) of the same compound?
Its value is 9.83 g.

What about the “AVERAGE WATER INTAKE” value ([3]; Day 21, Sub-The (subtherapeutic dose)) of the same compound?
Its value is 27.00 mL.

What about the “AVERAGE WATER INTAKE” value ([3]; Day 21, The (therapeutic dose)) of the same compound?
The value was 27.17 mL.

What about the “AVERAGE FOOD INTAKE” value ([3]; Day 21, subtherapeutic dose: STG 5.5, HCQ 23, combination 5.5+23 mg/kg oral) of the same compound?
The value was 10.33 g.

And the “AVERAGE FOOD INTAKE” value ([3]; Day 21, therapeutic dose: STG 11, HCQ 46, combination 11+46 mg/kg oral)?
The value was 8.83 g.

Source: patent publication US20140128402A1, “PHARMACEUTICAL COMBINATION” (IPCA Laboratories Limited, priority 2011, published 2014)
